Results taken from ChEMBL document CHEMBL2046378, “Investigation of chalcones as selective inhibitors of the breast cancer resistance protein: critical role of methoxylation in both inhibition potency and cytotoxicity” (J Med Chem, 2012).

What was measured:
ABCG2 [1] = target: T1, ABCG2 (Homo sapiens, UniProt Q9UNQ0); assay: Inhibition of ABCG2-mediated mitoxantrone efflux expressed in HEK293 cells at 2 uM after 48 hrs by flow cytometric analysis; assay type: cell-based; conditions: HEK293 cells expressing ABCG2, probe mitoxantrone
T1 sequence (Q9UNQ0 whole entry): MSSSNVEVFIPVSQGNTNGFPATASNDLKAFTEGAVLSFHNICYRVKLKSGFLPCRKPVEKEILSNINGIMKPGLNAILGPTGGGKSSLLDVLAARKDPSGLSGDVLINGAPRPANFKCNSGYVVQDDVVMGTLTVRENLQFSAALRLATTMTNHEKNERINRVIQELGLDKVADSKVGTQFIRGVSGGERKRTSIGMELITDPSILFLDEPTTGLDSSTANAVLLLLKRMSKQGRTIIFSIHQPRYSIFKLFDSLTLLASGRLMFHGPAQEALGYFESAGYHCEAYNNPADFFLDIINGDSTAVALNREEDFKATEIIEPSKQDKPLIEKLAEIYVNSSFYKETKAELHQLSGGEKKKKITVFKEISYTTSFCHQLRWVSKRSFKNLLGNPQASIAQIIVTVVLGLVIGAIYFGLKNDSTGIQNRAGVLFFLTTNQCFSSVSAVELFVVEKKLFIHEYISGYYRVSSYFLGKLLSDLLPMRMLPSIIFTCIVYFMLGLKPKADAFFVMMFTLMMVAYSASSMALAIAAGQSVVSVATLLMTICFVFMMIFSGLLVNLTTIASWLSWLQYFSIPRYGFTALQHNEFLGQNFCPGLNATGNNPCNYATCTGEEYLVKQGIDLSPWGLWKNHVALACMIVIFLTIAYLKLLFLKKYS

ABCG2 [2] = target: T1, ABCG2; assay: Inhibition of ABCG2-mediated mitoxantrone efflux expressed in HEK293 cells at 10 uM after 48 hrs by flow cytometric analysis; assay type: cell-based; conditions: HEK293 cells expressing ABCG2, probe mitoxantrone
[3] = target: T2, Broad substrate specificity ATP-binding cassette transporter ABCG2 (Homo sapiens, UniProt Q9UNQ0); assay: Inhibition of ABCG2-mediated mitoxantrone efflux expressed in HEK293 cells after 48 hrs by flow cytometric analysis; assay type: cell-based
T2 sequence (Q9UNQ0 whole entry): T1 sequence (Q9UNQ0 whole entry)

[4] = target: ATP-dependent translocase ABCB1 (Homo sapiens, UniProt P08183); assay: Inhibition of ABCB1-mediated mitoxantrone efflux expressed in HEK293 cells at 10 uM after 48 hrs by flow cytometric analysis; assay type: cell-based; conditions: hek293, 48 h
[5] = Cytotoxicity against human HEK293 cells transfected with ABCG2 after 72 hrs by MTT assay; assay type: ADME, cell-based; conditions: read-out: IG50
HEK293 = assay: Cytotoxicity against human HEK293 cells transfected with ABCG2 up to 100 uM after 72 hrs by MTT assay; assay type: ADME, cell-based; conditions: hek293, 72 h
[6] = target: Multidrug resistance-associated protein 1 (Homo sapiens, UniProt P33527); assay: Inhibition of ABCC1-mediated calcein transport expressed in human HEK293 cells at 10 uM after 48 hrs by flow cytometric analysis; assay type: cell-based; conditions: hek293, 48 h
ABCG2 [7] = target: T1, ABCG2; assay: Inhibition of ABCG2-mediated mitoxantrone efflux expressed in HEK293 cells at 5 uM after 48 hrs by flow cytometric analysis; assay type: cell-based; conditions: HEK293 cells expressing ABCG2, probe mitoxantrone
ABCG2 [8] = assay: Therapeutic index, ratio of IG50 for HEK293 cells to IC50 for ABCG2; assay type: cell-based; conditions: human, read-out: TI

Chain of ATP-dependent translocase ABCB1 (P08183 whole entry): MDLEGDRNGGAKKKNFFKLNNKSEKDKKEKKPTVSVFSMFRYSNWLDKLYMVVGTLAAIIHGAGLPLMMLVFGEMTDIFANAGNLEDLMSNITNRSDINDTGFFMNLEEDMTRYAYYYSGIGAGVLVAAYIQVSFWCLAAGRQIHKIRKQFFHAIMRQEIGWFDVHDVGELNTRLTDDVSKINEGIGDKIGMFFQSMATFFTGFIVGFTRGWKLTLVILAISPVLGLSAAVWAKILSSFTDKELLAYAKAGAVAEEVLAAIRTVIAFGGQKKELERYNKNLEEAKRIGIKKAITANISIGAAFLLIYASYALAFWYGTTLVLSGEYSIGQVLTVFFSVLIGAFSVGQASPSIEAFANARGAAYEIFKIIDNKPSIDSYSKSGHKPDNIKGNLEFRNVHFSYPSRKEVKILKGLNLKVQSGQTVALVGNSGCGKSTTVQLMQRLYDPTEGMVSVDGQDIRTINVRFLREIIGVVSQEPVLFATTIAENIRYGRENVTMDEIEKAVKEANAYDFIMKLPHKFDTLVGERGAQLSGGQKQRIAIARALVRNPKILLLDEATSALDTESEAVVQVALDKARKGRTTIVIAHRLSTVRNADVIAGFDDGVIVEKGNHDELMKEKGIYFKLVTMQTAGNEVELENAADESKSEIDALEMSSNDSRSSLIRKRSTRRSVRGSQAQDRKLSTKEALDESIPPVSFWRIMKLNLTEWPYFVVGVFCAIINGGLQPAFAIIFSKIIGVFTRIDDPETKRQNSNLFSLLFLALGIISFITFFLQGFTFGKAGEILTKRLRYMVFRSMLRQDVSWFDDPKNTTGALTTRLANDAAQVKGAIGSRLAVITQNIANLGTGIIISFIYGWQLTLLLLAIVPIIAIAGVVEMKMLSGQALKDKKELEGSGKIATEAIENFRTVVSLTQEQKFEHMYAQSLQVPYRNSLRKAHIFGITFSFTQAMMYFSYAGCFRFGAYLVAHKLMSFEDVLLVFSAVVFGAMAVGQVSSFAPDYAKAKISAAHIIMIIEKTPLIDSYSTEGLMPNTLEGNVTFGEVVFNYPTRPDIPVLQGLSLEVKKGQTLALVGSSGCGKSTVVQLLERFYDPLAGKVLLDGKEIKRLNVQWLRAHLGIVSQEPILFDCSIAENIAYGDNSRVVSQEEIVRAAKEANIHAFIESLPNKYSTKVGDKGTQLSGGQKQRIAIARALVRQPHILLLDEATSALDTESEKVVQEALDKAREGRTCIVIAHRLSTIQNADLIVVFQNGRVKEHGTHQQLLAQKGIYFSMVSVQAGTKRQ
Chain of Multidrug resistance-associated protein 1 (P33527 whole entry): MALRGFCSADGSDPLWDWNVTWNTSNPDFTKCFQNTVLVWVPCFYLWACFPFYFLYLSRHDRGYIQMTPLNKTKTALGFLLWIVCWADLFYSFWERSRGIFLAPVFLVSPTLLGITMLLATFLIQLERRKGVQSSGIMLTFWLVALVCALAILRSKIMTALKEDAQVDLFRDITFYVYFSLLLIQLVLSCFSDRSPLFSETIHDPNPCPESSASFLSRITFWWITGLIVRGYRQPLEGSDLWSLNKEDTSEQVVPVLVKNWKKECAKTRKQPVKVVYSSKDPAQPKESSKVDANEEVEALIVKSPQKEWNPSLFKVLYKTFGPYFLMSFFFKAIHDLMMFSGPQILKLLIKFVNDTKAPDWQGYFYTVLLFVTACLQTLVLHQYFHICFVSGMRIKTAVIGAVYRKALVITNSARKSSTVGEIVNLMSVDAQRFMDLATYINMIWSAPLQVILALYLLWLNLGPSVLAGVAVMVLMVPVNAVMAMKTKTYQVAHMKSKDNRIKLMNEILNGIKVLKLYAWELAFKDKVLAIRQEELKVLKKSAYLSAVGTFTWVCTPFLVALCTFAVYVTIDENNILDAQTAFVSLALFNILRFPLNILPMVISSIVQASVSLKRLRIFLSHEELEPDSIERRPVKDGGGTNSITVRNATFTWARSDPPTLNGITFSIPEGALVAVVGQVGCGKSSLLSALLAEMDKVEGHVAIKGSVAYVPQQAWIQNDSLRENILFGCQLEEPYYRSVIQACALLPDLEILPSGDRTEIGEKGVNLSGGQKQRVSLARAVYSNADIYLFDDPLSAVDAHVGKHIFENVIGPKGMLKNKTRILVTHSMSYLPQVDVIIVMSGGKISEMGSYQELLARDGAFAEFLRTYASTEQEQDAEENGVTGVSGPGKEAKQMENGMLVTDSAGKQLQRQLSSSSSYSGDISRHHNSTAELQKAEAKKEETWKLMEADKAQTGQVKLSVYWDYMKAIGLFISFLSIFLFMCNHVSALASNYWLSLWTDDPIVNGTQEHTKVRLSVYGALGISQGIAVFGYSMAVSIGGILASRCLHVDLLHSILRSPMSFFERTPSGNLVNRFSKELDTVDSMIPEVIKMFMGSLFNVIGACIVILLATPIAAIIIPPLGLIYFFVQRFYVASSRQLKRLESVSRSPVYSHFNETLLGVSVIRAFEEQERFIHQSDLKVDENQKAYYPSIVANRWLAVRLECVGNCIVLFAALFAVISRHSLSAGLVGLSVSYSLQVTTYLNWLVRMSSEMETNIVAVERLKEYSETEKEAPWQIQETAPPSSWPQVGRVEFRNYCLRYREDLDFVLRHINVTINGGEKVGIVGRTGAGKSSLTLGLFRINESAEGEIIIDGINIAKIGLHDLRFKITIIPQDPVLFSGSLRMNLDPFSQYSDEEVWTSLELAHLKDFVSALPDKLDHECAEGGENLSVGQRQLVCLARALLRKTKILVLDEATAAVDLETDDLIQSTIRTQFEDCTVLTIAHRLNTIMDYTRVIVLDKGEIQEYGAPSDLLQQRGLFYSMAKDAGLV

| SMILES | inhibition at 48 h, 2 µM (ABCG2 [1]) [%] | inhibition at 48 h, 10 µM (ABCG2 [2]) [%] | IC50 [3] [nM] | inhibition (INH) [4] | GI50 at 72 h [5] [nM] | Activity (HEK293) | inhibition (INH) [6] | inhibition at 48 h, 5 µM (ABCG2 [7]) [%] | selectivity ratio (ABCG2 [8]) |
| --- | --- | --- | --- | --- | --- | --- | --- | --- | --- |
| COc1cccc(OC)c1C(=O)/C=C/c1cn(C)c2ccccc12 | 2.9 | 17.4 | – | – | – | – | – | – | – |
| COc1cc(O)c(C(=O)/C=C/c2c(OC)cccc2OC)c(OC)c1 | – | – | 350 | Not Active | 50000 | Non-toxic | Not Active | – | – |
| COc1cc2c(cc1OC)CN(CCc1ccc(NC(=O)c3cccc4c(=O)c5cccc(OC)c5[nH]c34)cc1)CC2 | – | – | – | – | – | – | – | 100 | – |
| COc1cc(/C=C/C(=O)c2c(O)cc(OC)cc2OC)cc(OC)c1 | – | – | 170 | Not Active | 6000 | Non-toxic | Not Active | – | – |
| COc1cc(/C=C/C(=O)c2cn(C)c3ccccc23)cc(OC)c1OC | 49.3 | 70 | – | – | – | – | – | – | – |
| Cn1cc(/C=C/C(=O)c2cn(C)c3ccccc23)c2ccccc21 | 52.1 | 98.8 | – | – | – | – | – | – | – |
| COc1cc(OC)c(C(=O)/C=C/c2cn(C)c3ccccc23)c(OC)c1 | 3.7 | 30 | – | – | – | – | – | – | – |
| COc1cccc(/C=C/C(=O)c2c(O)cc(OC)cc2OC)c1 | – | – | 260 | Not Active | 10000 | Non-toxic | Not Active | – | – |
| COc1ccc(/C=C/C(=O)c2cn(C)c3ccccc23)c(OC)c1 | 83.8 | 108 | – | – | – | – | – | – | – |
| COc1cc(OC)c(/C=C/C(=O)c2cn(C)c3ccccc23)c(OC)c1 | 93.8 | 109 | 450 | Not Active | 4000 | Non-toxic | Not Active | – | 9 |
| COc1cc(OC)c(/C=C/C(=O)c2cn(C)c3ccc(OC)cc23)c(OC)c1 | 89.1 | 111 | 350 | Not Active | 1000 | Non-toxic | Not Active | – | 3 |
| COc1ccc(C(=O)/C=C/c2ccc(OC)c(OC)c2)c(O)c1 | 71.1 | 76.5 | – | – | – | – | – | – | – |
| COc1ccc(C(=O)/C=C/c2cn(C)c3ccccc23)cc1 | 55.5 | 89 | – | – | – | – | – | – | – |
| COc1ccc(C(=O)/C=C/c2cn(C)c3ccccc23)c(OC)c1 | 88.2 | 125 | – | – | – | – | – | – | – |
| COc1cccc(OC)c1/C=C/C(=O)c1cn(C)c2ccccc12 | 104 | 113 | 270 | Not Active | 50000 | Non-toxic | Not Active | – | 185 |
